Values quoted from earlier work, collected in patent publication US9340307B2, “Stable laquinimod preparations” (priority 2007, dated 2016).

Tested on: acute experimental autoimmune encephalomyelitis (aEAE) model
Conditions: U.S. Pat. No. 6,077,851

CCN(C(=O)c1c(O)c2c(Cl)cccc2n(C)c1=O)c1ccccc1 [Laquinimod, N-ethyl-N-phenyl-1,2-dihydro-4-hydroxy-5-chloro-1-methyl-2-oxoquinoline-3-carboxamide]
effectiveness in the aEAE model: effective
